Test results published in publication PMC12794274, “Therapeutic potential of Sheng-Xian-Tang in doxorubicin-induced chronic heart failure by regulation of phenylalanine metabolism disruption” (Chinese Medicine, 2026).
Where “and” joins values, the source holds several entries; their conditions need not be identical. Equal entries are not always repeated.

Key:
[1] = tested on: DOX-induced CHF rats; assay: Oxidative stress in heart and liver tissue (SOD, MDA, ROS, PTGS2); format: in vivo, rat; settings: experiment II
Method: Immunofluorescence staining was performed on tissue sections to detect phenylalanine hydroxylase (PAH), prostaglandin-endoperoxide synthase 2 (PTGS2), and reactive oxygen species (ROS). Primary antibodies against PAH and PTGS2 were used, while ROS was detected using the DCFH-DA probe. Nuclei were counterstained with DAPI. Images were captured using a fluorescence microscope. Serum biochemical parameters including brain natriuretic peptide (BNP), creatine kinase (CK), lactate dehydrogenase (LDH), alanine aminotransferase (ALT), and aspartate aminotransferase (AST) were measured using commercial ELISA kits (Nanjing Jiancheng Bioengineering Institute, Nanjing, China) according to the manufacturer's instructions. Superoxide dismutase (SOD), and malondialdehyde (MDA) levels in liver and heart tissues were measured using assay kits from […] Biotechnology (Changsha, China). Phenylalanine and tyrosine concentrations in the cell were determined using an ELISA kit from Abmart (Shanghai, China).

[2] = tested on: H9C2 cells; assay: Effect of phenylalanine on doxorubicin-induced H9C2 cells; format: cell-based; settings: DOX 1 µM + Phe 18.5 µM, 24 h
Method: H9C2 cells were seeded in 96-well plates at a density of 5 × 10⁴ cells per well (in 100 µL medium) and allowed to adhere for 12 h. The cells were then treated for 24 h with either DOX (1 µM) alone or DOX (1 µM) in combination with Phe (18.5 µM; a concentration derived from the dosing conversion ratio used in prior rat experiments). An untreated group served as the control. Cell viability was determined by measuring the optical density at 450 nm using a microplate reader. The levels of CK, LDH, SOD, and MDA were quantified using commercial assay kits.

[3] = tested on: phenylalanine hydroxylase (PAH); assay: PAH expression in liver and heart (western blotting, immunofluorescence); format: in vivo, rat; settings: experiment II; DOX vs CON, co-treatments vs DOX
Method: Immunofluorescence staining was performed on tissue sections to detect phenylalanine hydroxylase (PAH), prostaglandin-endoperoxide synthase 2 (PTGS2), and reactive oxygen species (ROS). Primary antibodies against PAH and PTGS2 were used, while ROS was detected using the DCFH-DA probe. Nuclei were counterstained with DAPI. Images were captured using a fluorescence microscope.
Protein was extracted from liver or heart tissue samples (30 mg) using lysis buffer. Total protein concentration was determined using a BCA protein assay kit (Thermo Fisher Scientific, USA). Equal amounts of protein from each sample were separated on 10–12% SDS-PAGE gels and transferred to PVDF membranes. Membranes were blocked with quick blocking buffer for 30 min, then incubated with anti-PAH primary antibody (1:1000 dilution) overnight at 4 °C. After washing, membranes were incubated with a secondary antibody for 1 h at 37 °C. Protein bands were visualized using an Odyssey infrared imaging system (JS-1070, Shanghai Peiqing Science & Technology Co., Ltd, China). Band intensities were quantified using ImageJ software.

[4] = tested on: DOX-induced CHF rats; assay: Serum biochemical parameters (BNP, CK, LDH, ALT, AST) by ELISA kits; format: in vivo, rat; settings: experiment II, co-treatment vs DOX group
Method: Serum biochemical parameters including brain natriuretic peptide (BNP), creatine kinase (CK), lactate dehydrogenase (LDH), alanine aminotransferase (ALT), and aspartate aminotransferase (AST) were measured using commercial ELISA kits (Nanjing Jiancheng Bioengineering Institute, Nanjing, China) according to the manufacturer's instructions. Superoxide dismutase (SOD), and malondialdehyde (MDA) levels in liver and heart tissues were measured using assay kits from […] Biotechnology (Changsha, China). Phenylalanine and tyrosine concentrations in the cell were determined using an ELISA kit from Abmart (Shanghai, China).

[5] = tested on: heart tissues; assay: Transmission electron microscopy of heart tissue; format: in vivo, rat; settings: experiment II; DOX alone, co-treatments vs DOX
Method: Freshly excised heart tissues were immediately fixed in 2.5% glutaraldehyde at 4 °C overnight. After washing with 0.1 M cacodylate trihydrate buffer, samples were post-fixed with 1% osmium tetroxide for 1 h. Tissues were then dehydrated through a graded ethanol series, incubated in acetone, and embedded in epoxy resin. Ultrathin sections were mounted on copper grids and imaged using a Hitachi HT7800 transmission electron microscope (Tokyo, Japan).

[6] = tested on: DOX-induced chronic heart failure (CHF) rat model; assay: Echocardiography (LVEF%, LVFS%) in DOX-induced CHF rats; format: in vivo; settings: experiment II, DOX + Phe 280 mg/kg, BH4 14 mg/kg or SXT 16 g/kg vs DOX group
Method: Experiment I, 48 rats were randomly divided into six groups: (1) the CON group; (2) the DOX group; (3) the DOX + enalapril (ENP, positive control, 1.8 mg/kg) group; (4) the DOX + SXT at low dose group (4 g/kg); (5) the DOX + SXT at middle dose group (8 g/kg); and […] the DOX + SXT at high dose group (16 g/kg). Except those rats in the CON group, the remaining rats received DOX at a 2.5 mg/kg per injection to a cumulative dose of 15 mg/kg. The dose of SXT for the low-dose group was set at 4 g/kg, based on the minimum human clinical daily dose (48.5 g, Table S2) converted to an equivalent rat dose using body surface area normalization (48.5 g/70 kg × 6.3 ≈ 4.4 g/kg, rounded to 4 g/kg). To evaluate a clear dose–response relationship, the medium and high doses were established at 8 g/kg and 16 g/kg, respectively, corresponding to 2 fold and 4 fold the low dose. This gradient dosing strategy is consistent with the Technical Guidelines for Pharmacodynamic Studies of Traditional Chinese Medicine and the Technical Guidelines for General Pharmacology Studies of Traditional Chinese Medicine and Natural Drugs, and is further supported by our previous study on the effective dose range of SXT in a rat model of doxorubicin-induced chronic heart failure. Heart function was monitored by echocardiography analysis at day 39, and the CHF model was considered to be successfully established when the left ventricular ejection fraction (LVEF%) values were reduced to 50%. Urinary samples were collected at five time points (0, 10, 20, 30, and 39 d), while fecal samples were collected before the rats were euthanized. Subsequently, the rats were anesthetized, and blood samples and heart and liver tissues were collected. All bio-samples were stored at − 80 °C until analysis.
Experiment II was conducted to specifically confirm the exacerbated cardiac abnormality of phenylalanine in the DOX-induced CHF rats. […] Heart function was detected as in the experiment I.
Echocardiographic (ECG) measurements were performed using M-mode tracings and continuous Doppler with a Vevo 2100 system (Visual Sonics, Toronto, ON, Canada). Rats were anesthetized with isoflurane prior to imaging. Cardiac function indices including left ventricular ejection fraction (LVEF%) and left ventricular fractional shortening (LVFS%) were measured and recorded.

[7] = tested on: phenylalanine metabolism; assay: Phenylalanine and tyrosine levels in rat serum, liver and heart tissues (LC/MS); format: in vivo
Method: Phenylalanine and tyrosine in the different rat bio-samples were analyzed by LC/MS using an Agilent 1290 Ultra high-performance liquid chromatography (UHPLC) and an Agilent 6460 triple-quadrupole tandem mass spectrometer (QQQ-MS) (Agilent Inc, USA). Data were acquired by using an Agilent Zorbax SB-C18 column (3.0 × 150 mm, 5 μm) as described previously.

[8] = tested on: cardiac tissues of DOX-induced CHF rats; assay: Heart histopathology (H&E, Masson) and TUNEL apoptosis detection; format: in vivo, rat; settings: experiment II, co-treatment vs DOX group
Method: Cardiac tissues were fixed in 4% paraformaldehyde, embedded in paraffin, and sectioned at 4–5 μm thickness. Hematoxylin and eosin (H&E) staining was performed to assess histopathological changes, while Masson’s trichrome staining was used to evaluate cardiac fibrosis. Apoptosis in cardiac tissues was detected using a TUNEL assay kit (C1088, Beyotime, Shanghai, China).

[9] = tested on: PAH activity in AML12 cells; format: cell-based
Method: Serum biochemical parameters including brain natriuretic peptide (BNP), creatine kinase (CK), lactate dehydrogenase (LDH), alanine aminotransferase (ALT), and aspartate aminotransferase (AST) were measured using commercial ELISA kits (Nanjing Jiancheng Bioengineering Institute, Nanjing, China) according to the manufacturer’s instructions. Superoxide dismutase (SOD), and malondialdehyde (MDA) levels in liver and heart tissues were measured using assay kits from Aifang Biotechnology (Changsha, China). Phenylalanine and tyrosine concentrations in the cell were determined using an ELISA kit from Abmart (Shanghai, China).
(§1) Mouse hepatocellular cell lines (AML12), purchased from the Shanghai Cell Bank of Chinese Academy of Sciences (Shanghai, China), were cultured in Dulbecco’s Modified Eagle Medium (DMEM) supplemented with 10% fetal bovine serum (FBS) and 2 mM L-glutamine and 1% pyruvate and maintained at 37 °C in a […], 5% CO2 incubator. Cells were seeded at a density of 5 × 10^5 cells/well in 6-well plates. […] Cells’ survival rate was detected by Cell Counting Kit-8 (CCK8) Reagents (Thermo Scientific, Singapore).

[10] = tested on: AML12 cells; assay: AML12 cell viability (CCK8); format: cell-based
Method: as §1

[11] = tested on: AML12 cells; format: cell-based, mouse; settings: AML12 cells, dose-dependent
Method: as §1

[12] = molecular target: T1, PAH protein in AML12 cells (Mus musculus, UniProt P16331); assay: Cellular Thermal Shift Assay (CETSA); format: cell-based; settings: neomangiferin 10 μM, 24 h, 37-72 °C, vs control group
T1 construct: endogenous in cells; host or cells: AML12 mouse hepatocytes
T1 sequence (P16331 1-453): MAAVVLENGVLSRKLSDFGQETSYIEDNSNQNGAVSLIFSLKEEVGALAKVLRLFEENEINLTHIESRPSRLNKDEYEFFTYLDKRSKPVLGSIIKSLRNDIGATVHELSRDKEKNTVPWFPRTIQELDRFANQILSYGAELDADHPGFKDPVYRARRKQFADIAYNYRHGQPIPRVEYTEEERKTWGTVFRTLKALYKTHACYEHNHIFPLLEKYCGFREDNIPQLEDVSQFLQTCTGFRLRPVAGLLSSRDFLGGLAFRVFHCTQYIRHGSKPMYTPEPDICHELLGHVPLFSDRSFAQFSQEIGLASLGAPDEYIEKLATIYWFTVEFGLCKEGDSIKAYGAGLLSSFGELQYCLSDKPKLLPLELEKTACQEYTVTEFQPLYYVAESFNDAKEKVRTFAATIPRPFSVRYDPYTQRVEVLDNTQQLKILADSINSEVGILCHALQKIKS
Method: AML12 cells (5 × 10^5 cells/well) in 6-well plates were divided into two groups, with 8 wells in each group. […] After 24 h, 8 samples of cells from each of the two groups were incubated at specific temperatures (37, 42, 47, 52, 57, 62, 67, and 72 °C) for 3 min and each sample was performed for western blotting analysis.

[13] = molecular target: Phenylalanine hydroxylase (PAH) protein (Homo sapiens, UniProt P00439); assay: Surface Plasmon Resonance (SPR) analysis, Biacore T200; format: binding; settings: PAH immobilized on CM5 chip, read-out: dissociation constant (Kd)
Phenylalanine hydroxylase (PAH) protein, sequence (P00439 whole entry): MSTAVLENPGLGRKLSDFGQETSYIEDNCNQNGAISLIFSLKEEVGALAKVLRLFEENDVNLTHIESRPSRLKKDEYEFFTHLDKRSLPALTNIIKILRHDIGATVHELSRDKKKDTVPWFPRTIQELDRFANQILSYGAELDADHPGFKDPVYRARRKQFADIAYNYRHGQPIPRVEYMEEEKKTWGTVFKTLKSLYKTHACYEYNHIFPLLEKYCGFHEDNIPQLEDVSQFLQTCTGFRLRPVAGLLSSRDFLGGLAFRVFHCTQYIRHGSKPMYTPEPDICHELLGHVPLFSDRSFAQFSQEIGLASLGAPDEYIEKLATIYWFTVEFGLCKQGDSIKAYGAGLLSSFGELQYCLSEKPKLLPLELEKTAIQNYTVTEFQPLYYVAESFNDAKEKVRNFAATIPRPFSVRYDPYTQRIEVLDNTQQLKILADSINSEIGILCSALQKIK
Method: SPR assays were conducted using a Biacore T200 system (GE Healthcare Life Sciences, USA). Phenylalanine hydroxylase (PAH) protein was immobilized on CM5 sensor chips using an amine-coupling kit (BR100050, GE Healthcare) following standard procedures. […] Samples were injected over reference and PAH-immobilized flow cells at a flow rate of 30 μL/min, with 120 s contact time and 120 s dissociation time. Kinetic parameters were calculated using Biacore T200 evaluation software.

[14] = DOX + phenylalanine vs DOX group

Row | SMILES | hepatic and cardiac MDA [1, 14] | hepatic and cardiac SOD activity [1, 14] | ROS production and PTGS2 expression in the heart ([1]; co-treatment with DOX) | DOX-induced cardiotoxicity in H9C2 cells (cell viability, SOD, CK, LDH, MDA) [2] | PAH expression in heart tissue [3] | PAH expression in liver tissue [3] | DOX-induced increases in serum levels of BNP, CK, LDH, ALT and AST [4] | mitochondrial ultrastructure of heart (electron microscopy) [5] | LVEF and LVFS / DOX-induced cardiac dysfunction [6] | serum phenylalanine concentration ([7]; experiment II, DOX + phenylalanine 280 mg/kg, BH4 14 mg/kg or SXT 16 g/kg) [µM] | increase in serum phenylalanine levels ([7]; oral phenylalanine, compared to the DOX group) [%] | DOX-induced cardiac injury and collagen accumulation (H&E and Masson) [8] | PAH activity (enzyme activity assay) [9] | phenylalanine levels in AML12 cells increased by DOX ([9]; BH4 10 μM, timosaponin B-II, neomangiferin, anemarrhenasaponin I 5, 10, 20 μM, timosaponin AIII 0.1, 0.2, 0.5 μM) | non-cytoxic concentration [10] [µM] | DOX-induced AML12 cell viability ([10]; DOX 1 µM, 24 h, three concentrations of compound) | DOX-induced oxidative stress (SOD, MDA) [11] | thermal stability of PAH protein (CETSA) [12] | Kd [13]
1 | N[C@@H](Cc1ccccc1)C(=O)O [phenylalanine] | marked MDA elevation | pronounced suppression | upregulating | exacerbated | further exacerbated | further exacerbated | largely promoted | more pronounced | lower | 100.715 | 16.92 | exacerbated |  |  |  |  |  |  | 
2 | O=c1c2cc(O[C@@H]3O[C@H](CO)[C@@H](O)[C@H](O)[C@H]3O)c(O)cc2oc2cc(O)c([C@@H]3O[C@H](CO)[C@@H](O)[C@H](O)[C@H]3O)c(O)c12 [Neomangiferin] |  |  |  |  |  |  |  |  |  |  |  |  | significantly increase | significantly reduce | 5 to 20 | alleviated | alleviated | better thermal stability | 5.75 µM and < 10 µM
